The values below come from publication PMC11239005, “Preclinical studies of RA475, a guanidine-substituted spirocyclic candidate RPN13/ADRM1 inhibitor for treatment of ovarian cancer” (PLOS ONE, 2024).

On the set-up of data set [1]: method as in PMID 37315065. The note with it: mice; cited from earlier work.
For a further data set, the target named is T1, RPN13 (Homo sapiens, UniProt Q16186).
T1 construct: performed the labeling assay after treating ovarian cancer cell lysates (ES2 and SKOV3) in the presence of titrated doses of RA475; endogenous in cells; host or cells: ES2 and SKOV3 ovarian cancer cell lysates
T1 sequence (Q16186 whole entry): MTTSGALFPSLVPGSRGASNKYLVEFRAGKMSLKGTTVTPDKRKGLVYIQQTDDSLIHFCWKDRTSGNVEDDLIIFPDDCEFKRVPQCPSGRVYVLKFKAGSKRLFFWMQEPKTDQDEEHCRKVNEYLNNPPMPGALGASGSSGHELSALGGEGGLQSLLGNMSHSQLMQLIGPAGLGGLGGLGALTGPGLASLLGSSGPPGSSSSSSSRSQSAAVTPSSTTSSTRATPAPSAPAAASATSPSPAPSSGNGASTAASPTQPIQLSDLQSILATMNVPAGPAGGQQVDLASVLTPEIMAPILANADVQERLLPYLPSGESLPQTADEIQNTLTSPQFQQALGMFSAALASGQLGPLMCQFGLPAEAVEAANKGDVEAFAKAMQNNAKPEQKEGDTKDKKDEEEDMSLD
Description: Up284B competition labelling in ES2 and SKOV3 cell lysate. The class given is binding. Conditions: titrated RA475, bortezomib 1 μM, Up284B 5 μM. How it is done: Clarified cell lysate in MPER buffer (Pierce) was pretreated with streptavidin-coated magnetic beads for 45 min at 4°C to deplete non-specific biotinylated proteins in the cell lysate. […] Next, the samples were mixed with Laemmli sample buffer (BioRad) and boiled for 5 min. The proteins were separated using a 4–15% Bio-Rad Mini-PROTEAN SDS-PAGE gel (1 h at 100 V), and transferred to PVDF membrane overnight at 4°C (24 V). The membrane was blocked with 5% (w/v) BSA in phosphate buffered saline containing 0.1% (v/v) Tween 20 (PBST) for 1 h at RT, and washed for 20 min (3X with PBST). Then the membrane was probed with HRP-streptavidin (1:10,000 in PBST) for 1 h at RT, washed for 30 min (3X with PBST), and developed using HyGLO chemiluminescent detection reagent (Denville) and visualized using a Biorad Chemidoc imager.
Fig 2 RA475 binds to RPN13 and induces rapid apoptosis. […] C, D) RA475 competition labelling experiment. C) ES2 D) SKOV3 clarified cell lysate (40 μg/sample) in MPER buffer was pretreated with streptavidin-coated magnetic beads for 45 min at 4°C to deplete non-specific biotinylated proteins in the cell lysate. […] Next, the samples were mixed with Laemmli sample buffer (BioRad) and boiled for 5 min. The proteins were separated using a 4–15% Bio-Rad Mini-PROTEAN SDS-PAGE gel (1 h at 100 V), and transferred to PVDF membrane overnight at 4°C (24 V). […]

SMILES strings stand for the structures.

As to `N#Cc1ccc(/C=C2/C(=O)/C(=C/c3ccc(C#N)cc3)C23CCNCC3)cc1` [Up284, reference compound], in data set [1], the IP bioavailability was 87% and the oral bioavailability was 23%. On to `Cl.Cl.N#Cc1ccc(/C=C2/C(=O)/C(=C/c3ccc(C#N)cc3)C23CCN(C(=N)N)CC3)cc1` [RA475, 1,3-bis((E)-4-cyanobenzylidene)-2-oxo-7-azaspiro[3.5]nonane-7-carboximidamide dihydrochloride], for which the “competition with Up284B for binding to RPN13” value on RPN13 is “efficiently competes”.
